Patent US20260258087A1, “PHARMACEUTICAL COMPOSITION FOR PREVENTING OR TREATING HEPATITIS B” (GWANGJU INSTITUTE OF SCIENCE AND TECHNOLOGY, priority 2022, published 2026)

What was measured:
[1] = Caco-2 permeability assay; conditions: human
Method: Caco-2 permeability assay was performed in triplicate. A 10 μM sample was dissolved in 1% (v/v) DMSO/HBSS solution, and 100 μM verapamil in Hank's Balanced Salt Solution (HBSS) buffer was used as a P-glycoprotein inhibitor. Inserts with Caco-2 cells were pre-incubated with verapamil for 30 min at 37° C., and then incubated for 2 hours at 37° C. without shaking. Efflux ratio was calculated as A to B permeability/B to A permeability. Aliquots (20 μL) were collected at each time point (0.5, 1, 1.5, and 2 hours). Experiments were performed in duplicate.

HBV = assay type: cell-based, Hepatitis B virus; conditions: HepG2-NTCP cells
Method: HepG2 cells are representative cells that have immortalized human liver cells, and HepG2-NTCP cells refer to cells that overexpress sodium-taurocholate cotransporting polypeptide (NTCP). HepG2-NTCP cells are representative cells used to confirm the effect of inhibiting HBV host invasion.
HepG2-NTCP cells were grown in DMEM medium containing 10% FBS, penicillin (100 U), and streptomycin (0.1 mg/mL) at 37° C. with […]. […] The HepG2-NTCP cells were incubated with cyclic peptides in 12-well plates for 2 hours. Afterwards, the cells were infected by treating HBV particles (2×10^6 virus/mL) and cyclic peptide together and cultured for 3 hours. After removing the medium containing the virus, the cells were cultured for 16 hours. After the cells were treated with cyclic peptide, intracellular HBV DNA was extracted, purified, and quantified using a gene amplification test. To isolate HBV DNA from host cells, cells were lysed with cell lysis buffer (50 mM Tris-HCl, pH 7.5, 1 mM EDTA, 1% NP40) for 10 minutes on ice. […]. Micrococcal nuclease was inactivated by adding EGTA to a final concentration of […]. Afterwards, intracellular DNA of HBV was extracted using the G-SPIN™ set. […]
In vitro HBV entry inhibition assay based on quantification of intracellular DNA of HBV was performed. […]
The IC50 values are expressed as mean±SD. […]

| Molecule | Papp A→B at 2 h, 10 μM ([1]; Caco-2) [nm/s] | Papp B→A at 2 h, 10 μM ([1]; Caco-2) [nm/s] | efflux ratio at 2 h, 10 μM ([1]; Caco-2) | recovery at 2 h, 10 μM ([1]; Caco-2, A to B % recovery, A to B) [%] | recovery at 2 h, 10 μM ([1]; Caco-2, A to B with verapamil % recovery, A to B, 100 μM verapamil) [%] | recovery at 2 h, 10 μM ([1]; Caco-2, B to A % recovery, B to A) [%] | HBV inhibition (%) (HBV; 1 μM, intracellular HBV DNA, n=3) | IC50 (HBV; mean±SD, read-out: In vitro HBV entry inhibition (IC50)) [µM] |
| --- | --- | --- | --- | --- | --- | --- | --- | --- |
| CN(C)C(=O)C(CCN1CCC(O)(c2ccc(Cl)cc2)CC1)(c1ccccc1)c1ccccc1 [loperamide] | 29 ± 20 | 275 ± 16 | 10 | 88 ± 6 | 78 ± 1 | 85 ± 1 |  |  |
| Cyclosporine A [CsA] |  |  |  |  |  |  | 83 ± 8 | 0.4 ± 0.03 |
